Data as given in PMC10820861, “Furofuranoid-Type Lignans and Related Phenolics from Anisacanthus virgularis (Salisb.) Nees with Promising Anticholinesterase and Anti-Ageing Properties: A Study Supported by Molecular Modelling” (Plants, 2024).
Where “and” joins values, the source holds several entries; their conditions need not be identical. Equal entries are not always repeated. Where two headings read alike, the source gives them in different places.

Key:
AChE = molecular target: T1, AChE (Electrophorus electricus, UniProt O42275); assay: biochemical; conditions: for IC50 / % Inhibition of AChE: mean ± SD; for inhibition at 0.01 µM / inhibition at 0.1 µM / inhibition at 1 µM / inhibition at 10 µM: read-out: % Inhibition of AChE
T1 construct: purchased
T1 sequence (O42275 24-633): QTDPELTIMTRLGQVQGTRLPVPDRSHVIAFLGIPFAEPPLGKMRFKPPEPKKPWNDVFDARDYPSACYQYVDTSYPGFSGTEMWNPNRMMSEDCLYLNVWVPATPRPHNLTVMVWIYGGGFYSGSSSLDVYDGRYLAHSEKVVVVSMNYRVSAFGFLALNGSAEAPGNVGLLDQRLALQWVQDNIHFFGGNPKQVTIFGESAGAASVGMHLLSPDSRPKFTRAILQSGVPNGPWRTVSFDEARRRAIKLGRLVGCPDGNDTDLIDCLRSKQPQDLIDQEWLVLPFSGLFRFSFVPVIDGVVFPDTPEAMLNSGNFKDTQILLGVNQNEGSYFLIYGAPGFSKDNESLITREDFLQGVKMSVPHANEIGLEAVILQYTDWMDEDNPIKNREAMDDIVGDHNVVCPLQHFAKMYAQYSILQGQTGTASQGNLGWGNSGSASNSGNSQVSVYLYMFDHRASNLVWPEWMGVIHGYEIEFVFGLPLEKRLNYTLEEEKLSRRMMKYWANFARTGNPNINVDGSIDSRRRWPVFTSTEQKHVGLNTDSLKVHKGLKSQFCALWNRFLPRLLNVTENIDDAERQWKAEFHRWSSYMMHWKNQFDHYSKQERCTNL
Description: The preparation of the sample was the same as has been previously described. The AChE-inhibitory effect of the furofuranoid lignans 1–5 was determined using an AChE inhibitor screening kit (the Quanti-Chrome assay kit). […] The 96-well plate reaction was prepared according to the manufacturer’s protocol.

TERT = TERT enzyme (telomerase activation) assay in normal melanocyte HFB4 cells; type: cell-based, human; conditions: 1 μM; for TERT Concentration Mean ± SD / Relative Increase (TERT vs untreated HFB4 control): 24 h; for Relative Increase (TERT vs untreated HFB4 control): control = 1
Description: In the present study, we assessed the in vitro anti-ageing activity of the lignan-type compounds 1–5 utilizing a TERT enzyme assay (Table 3). The normal melanocyte cell line (HFB4) was used as a model system in this study, and curcumin (1 μM) was used as a standard telomerase activator [47]. According to the report, curcumin has made it possible for model organisms to live longer, reduced the signs of ageing, and slowed the onset of age-related illnesses where cellular senescence is a direct cause.
TERT activity assay was used for in vitro investigation of the compound’s anti-ageing properties. The HFB4 (VACSERA, Giza, Egypt) was used as a model system for the study of amplification of telomers in response to our test compounds and curcumin. HFB4 cells were cultivated in RPMI-1640 medium enriched with heat-inactivated FBS (10%) and penicillin–streptomycin (100 U/mL). HFB4 cells (2 × 10^5) were plated and incubated in a 5% CO2 humidified atmosphere at 37 °C for 24 h. The cells were then left untreated (negative control), treated with tested compounds and with 1 μM curcumin, a standard activator for TERT. The supernatant from the various conditions was collected after 24 h, centrifuged for 20 min at 1000× g at 4 ℃, and immediately submitted for the assay as previously described. The different supernatants were added separately to a microtiter plate pre-coated with a TERT-specific antibody (Ab) and then incubated with a TERT-specific biotin detection Ab. Then, streptavidin/horseradish peroxidase (SABC) conjugate was added to all wells and incubated. […] The optical density (OD) was measured spectrophotometrically at 450 nm. The TERT concentration was determined by comparing the OD of the samples with the standard curve prepared according to the instructions of the manufacturer. The relative OD450 = (OD450 of the reaction well) − (OD450 of no treatment well). The standard curve was plotted by drawing the relative OD450 of each standard solution (Y) versus the respective concentration of the standard solution (X). The human TERT concentration of the samples was interpolated from the standard curve.

[1] = test system: butyrylcholinesterase enzyme; parameters: method as in doi:10.25135/rnp.71.17.04.074; conditions: 250 µg/mL; cited from earlier work
AChE enzyme = test system: AChE enzyme; parameters: method as in doi:10.25135/rnp.71.17.04.074; conditions: 250 µg/mL; cited from earlier work
acetylcholinesterase = conditions: concentration-dependent; cited from earlier work
[2] = test system: hippocampal long-term potentiation; parameters: method as in PMID 30685474; conditions: 50 μM; cited from earlier work
memory decline = conditions: 25 mg/kg, p.o.; dose-dependent; cited from earlier work
neuro2a cells = test system: neuro2a cells; parameters: method as in PMID 30685474; conditions: cited from earlier work
[3] = read-out: IC50 (AChE inhibition)

Compound | IC50 (AChE; IC50 (AChE inhibition)) [nM] | inhibition at 0.01 µM (AChE) [%] | inhibition at 0.1 µM (AChE) [%] | inhibition at 1 µM (AChE) [%] | inhibition at 10 µM (AChE) [%] | increase in telomerase activity compared to untreated cells (TERT) | TERT Concentration Mean ± SD (TERT) [ng/mL] | Relative Increase (TERT vs untreated HFB4 control) (TERT) | IC50 (AChE; [3]) | inhibitory effect on the butyrylcholinesterase enzyme [1] [%] | inhibitory effect on the AChE enzyme (AChE enzyme) [%] | effect on acetylcholinesterase activity (acetylcholinesterase) | effect on induction of hippocampal long-term potentiation [2] | effect on memory decline in dementia model (memory decline) | effect on calcium influx (neuro2a cells) | % Inhibition of AChE (AChE; 0.01 µM) [%] | % Inhibition of AChE (AChE; 0.1 µM) [%] | % Inhibition of AChE (AChE; 1 µM) [%] | % Inhibition of AChE (AChE; 10 µM) [%]
COc1cc([C@H]2OC[C@H]3[C@@H]2CO[C@H]3c2ccc(O)c(OC)c2)ccc1O (relative stereo) [Compound 3, epipinoresinol] | 242 ± 9 | 23 ± 1 | 44 ± 1 | 60 ± 2 | 82 ± 3 | a little weak | 2.0 ± 0.06 | 1.18 | – | – | – | – | – | – | – | – | – | – | –
COc1cc(/C=C/C(=O)CC(=O)/C=C/c2ccc(O)c(OC)c2)ccc1O [Curcumin, curcumin, reference compound] | – | – | – | – | – | 1.62 fold | 2.8 ± 0.03 | 1.62 | – | – | – | – | – | – | – | – | – | – | –
COc1cc([C@H]2OC[C@H]3[C@@H]2CO[C@@H]3c2ccc(O[C@@H]3O[C@H](CO)[C@@H](O)[C@H](O)[C@H]3O)c(OC)c2)ccc1O [Compound 5, pinoresinol 4-O-β-D-glucoside] | – | 28 ± 3 | 59 ± 4 | 79 ± 1 | 88 ± 3 | 1.66 fold | 2.8 ± 0.09 | 1.66 | 64.5 nM and 64 nM | 11.02 ± 0.35 | 20.17 ± 0.44 | – | – | – | – | – | – | – | –
COc1cc([C@H]2OC[C@H]3[C@@H]2CO[C@@H]3c2ccc(O)c(OC)c2)ccc1O (relative stereo) [Compound 2, pinoresinol] | 292 ± 9 | 26 ± 1 | 41 ± 1 | 60 ± 3 | 75 ± 2 | a little weak | 2.2 ± 0.03 | 1.28 | – | – | – | inhibited the activity of acetylcholinesterase in a concentration-dependent manner | aided the induction of hippocampal long-term potentiation | improved memory decline | aided calcium influx into neuro2a cells | – | – | – | –
COc1cc([C@H]2OC[C@H]3[C@@H]2CO[C@@H]3c2cc(OC)c3c(c2)[C@H](CO)[C@@H](c2ccc(O[C@@H]4O[C@H](CO)[C@@H](O)[C@H](O)[C@H]4O)c(OC)c2)O3)ccc1O [Compound 1, anisacanthin] | – | 24 ± 1 | 61 ± 1 | 75 ± 2 | 83 ± 2 | 1.64 fold | 2.8 ± 0.04 | 1.64 | 85 nM | – | – | – | – | – | – | – | – | – | –
phillyrin [Compound 4] | – | – | – | – | – | 1.72 fold and 1.71 fold | 2.9 ± 0.06 | 1.72 | – | – | – | – | – | – | – | 26 ± 3 | 41 ± 2 | 64 ± 2 | 73 ± 2
